The results in this text go back to patent publication US7208154B2, “Methods and compositions for the treatment of MHC-associated conditions” (Regents of the University of Michigan, priority 2002, dated 2007).

For test [1], the target named is T1, calreticulin (Homo sapiens, UniProt P27797).
T1 sequence (P27797 18-417): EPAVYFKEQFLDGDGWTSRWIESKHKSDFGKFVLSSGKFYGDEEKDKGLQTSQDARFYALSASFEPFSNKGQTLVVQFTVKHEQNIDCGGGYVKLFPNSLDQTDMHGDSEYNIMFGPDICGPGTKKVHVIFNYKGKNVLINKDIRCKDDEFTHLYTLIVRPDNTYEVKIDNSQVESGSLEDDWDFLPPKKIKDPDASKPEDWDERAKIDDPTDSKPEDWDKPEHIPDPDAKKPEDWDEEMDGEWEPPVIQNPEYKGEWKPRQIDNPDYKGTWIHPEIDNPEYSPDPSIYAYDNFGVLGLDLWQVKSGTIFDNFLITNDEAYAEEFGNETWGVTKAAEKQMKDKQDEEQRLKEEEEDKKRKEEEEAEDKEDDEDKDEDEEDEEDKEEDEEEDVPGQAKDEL
Put plainly: Competitive inhibition of shared epitope peptide binding to calreticulin (Biacore). Set-up: GST (cleaved yes); made in house; host or cells: E. coli (strain provided by Dr. Michalak). As to the method:
(§1) Prior to use, biosensor chips CM5 were docked into a Biacore® 2000 and preconditioned in water at 100 μl/min by applying two consecutive 20-μl pulses of 50 mM NaOH, then 10 mM HCl, and finally 0.1% SDS. Calreticulin was immobilized on CM5 surface by standard primary amine coupling [Lofas S et al. Biosensors & Bioelectronics, 10: 813–822, (1995), Johnsson B et al. J Mol Recognit., 8: 125–131, (1995), Karlsson R et al. J. Immunol. Methods, 200:121–133. (1997)]. Immobilizations were conducted at 25° C. in HBS-EP (10 mM HEPES, pH7.4, 150 mM NaCl, 1 mM EDTA, 0.005% Surfactant P-20), with a flow of 10 μl/min. The CM5 surface was activated by 7 min injection of 200 mM EDC/50 mM NHS to prepare a high-capacity surface, with manual injection of 100 μg/ml calreticulin until 5500 RU level was approached. Then 100 μl of 1M ethanolamine was used to block remaining activated group.
Calreticulin and peptide binding were performed at 25° C. in binding buffer (10 mM HEPES, pH8.0, 50 mM KCl, 0.5 mM CaCl2, 1% Triton-X100), with a flow rate of 10 μl/min. Peptides in the analyte ranged in concentration from 25–180 μM. Binding assays were repeated at least 3 times. Kinetic analysis was performed using Kinetic separate ka/kd fitting in BIA evaluation 3.0 software.
In order to determine whether DKCLA [SEQ ID NO: 16] and shared epitope-expressing peptides compete for the same binding site on calreticulin, competitive binding studies were performed in which the calreticulin binding activity of 14-mer shared epitope-expressing peptides was determined in the presence or absence of different pentapeptides. […] Thus, a Q70D substitution produces a shared epitope-antagonistic effect.
For orientation: In SPR one partner is held on a chip, and binding of the other changes the refractive index at the surface.

The target in test [2] is T1, calreticulin. Put plainly: Surface plasmon resonance, calreticulin immobilized on CM5 chip, pentapeptide binding. Set-up: GST (cleaved yes); made in house; host or cells: E. coli (strain provided by Dr. Michalak). Particulars: Biacore, 25° C., peptides 25–180 μM. As to the method:
The E. coli strain expressing GST fusion Calreticulin was kindly provided by Dr. Michalak [Baksh S et al. Protein Expr Purif., 3, 322–331, (1992)]. GST-Calreticulin was purified according to the manual of GST Gene Fusion System from Pharmacia. Factor Xa was used to liberate GST from calreticulin. In an additional step the column was treated with mono-Q to achieve >90% purity of calreticulin (MW=60 kD).
as §1, with “The CM5 surface was activated by 7 min injection of 200 mM EDC/50 mM NHS to prepare a high-capacity surface, with manual injection of 100 μg/ml calreticulin until 5500 RU level was approached. Then 100 μl of 1M ethanolamine was used to block remaining activated group.” left out
Shared epitope-expressing peptides potently bind to, and trigger, signaling through calreticulin. […] However, when calreticulin binding activities of the panel of pentapeptides were determined, one conspicuous exception was discovered, that is DKCLA FIG. 15 peptide #7 (Q70D).

As to “Gln Lys Arg Ala Glu (QKRAE) [pentapeptide with A74E substitution]”, the “Inhibition of 65–79*0401 binding to calreticulin” value in test [1] (Biacore assay, control experiment under identical conditions) is given as “did not inhibit 65–79*0401 binding to calreticulin”. For the same substance, the “Binding to immobilized calreticulin” value in test [2] is “did not bind to calreticulin”.
As for DKCLA [Asp Lys Cys Leu Ala], the “Block of 65–78*0401 binding to calreticulin” value in test [1] (14-mer peptide 65–78*0401) was “effectively and specifically blocked binding”. For the same substance, the “Block of 65–78*0404 binding to calreticulin” value in test [1] (14-mer peptide 65–78*0404) was “effectively and specifically blocked binding”. For the same substance, the “IC50, inhibition of 65–78*0401 binding to calreticulin” value in test [1] (dose response analysis, FIG. 16C) was “low-υM range”. In test [1] (dose response analysis, FIG. 16D), the “IC50, inhibition of 65–78*0404 binding to calreticulin” value is “low-υM range”. Moreover, the “Binding to immobilized calreticulin” value in test [2] is listed as “bind very strongly to calreticulin”.
